Measurements: patent US12116387B2, “Antimicrobial peptides” (priority 2021, dated 2024)
Read-outs that look alike come from different tables or passages of the source. Ends that are not written are not given here.

Columns and labels:
[1] = tested on: murine macrophages monocytes (RAW 264.7); assay: Cytotoxicity against RAW 264.7 cells (MTT); type: cell-based
[2] = tested on: mouse red blood cells (mRBCs); assay: Hemolysis of mouse red blood cells; type: cell-based; settings: 0.5 to 200 μmol L^−1
Description: Hemolysis assays. Hemolytic activity of peptides was determined by using fresh mouse red blood cells (mRBCs), by measuring the peptide-induced changes of the optical density (OD) at 540 nm (Victor X, Perkin-Elmer, Germany), 100% lysis was determined by analysing the supernatant of erythrocytes that had been incubated with Triton X-100 (1%).

[3] = tested on: human red blood cells (hRBCs); assay: Cytotoxicity / hemolysis against human red blood cells; type: cell-based
[4] = tested on: murine fibroblasts (L929); assay: Cytotoxicity against L929 fibroblasts (MTT); type: cell-based
Description: Mammalian cells toxicity assays. L929 mice fibroblasts (Rio de Janeiro Cell Bank) and SPCs were seeded in 96-well microtiter plates in a concentration of 1.0×10^5 cells per well, in DMEM medium, supplemented with different concentrations of tested peptides (1-600 μM). After 48 h incubation, a thiazolyl blue tetrazolium bromide (MTT) protocol was performed. Briefly, 60% of the medium was removed, and 10 μL of MTT (5 mg mL^−1) (Sigma, USA) solution was added to each well and the plate was incubated for 4 h, in 5% CO2, at 37° C. The blue formazan product generated was dissolved by the addition of 100 μL of 100% DMSO (Mallinckrodt, Germany) per well. Plates were then gently swirled for 5 min, at room temperature, to dissolve the precipitate. The absorbance was monitored at 575 nm using a microplate spectrophotometer (Bio-Tek, USA). Cytotoxicity was determined as a percentage of the maximum value after subtracting the background. The results were expressed as the percentage of each sample compared to the negative control (PBS buffer, pH 7.4) and cell culture was incubated in a lysis buffer (10 mM Tris, pH 7.4, 1 mM ethylenediamine tetraacetic acid (EDTA), and 0.1% Triton X-100).

[5] = tested on: P. aeruginosa; assay: Skin scarification (abscess) infection mouse model; type: in vivo; settings: single dose 16 μmol L^−1
Text: Despite these therapeutic properties, mast-MO retained some cytotoxicity towards human cells at concentrations immediately above its antimicrobial and immunomodulatory activities hindering its use as a potential therapy in humans. FIG. 6B pertains to design of mast-MO derivatives through permutation of its FLPII motif. FIG. 6C depicts cytotoxic activity of mast-MO and its permutation variants against human embryonic kidney cells (i.e., HEK293). FIG. 6D provides a schematic of the experimental design. Briefly, the back of mice was shaved, and an abrasion was generated to damage the stratum corneum and the upper layer of the epidermis. Subsequently, an aliquot of […] containing 5×10^7 CFU/20 μL of P. aeruginosa in PBS was inoculated over each defined area. One day post-infection, peptides (16 μmol L^−1) were administered to the infected area. […] Six animals per group were euthanized and the area of scarified skin was excised two days post-infection, homogenized using a bead beater for 20 min (25 Hz), and serially diluted for CFU quantification (statistical significance was determined using two-way ANOVA followed by Dunnett's test, ***p<0.001). […]
Skin abscess infection mouse model. […] Animals were euthanized and the area of scarified skin was excised two- and four-days post-infection, homogenized using a bead beater for 20 minutes (25 Hz), and serially diluted for CFU quantification. […]

[6] = tested on: mice
Description: Therefore, the anti-infective activity of mast-MO was then tested in pre-clinical mouse models. First, the toxicity of a single dose of either mast-L or mast-MO administered peritoneally to mice was assessed in order to determine the range of concentrations to be used in subsequent animal experiments. The hemolytic activity of mast-MO (up to 200 μmoL^−1) against murine red blood cells (Table 6) was also tested prior to conducting animal experiments.
Systemic bacterial infection mouse model. Acute toxicity assay was performed based on the work of Navon-Venezia and co-workers (46). The experiment was performed by intraperitoneal (i.p.) injection of the tested peptides to groups of 10 C57BL/6 mice. Each mouse was injected with a 0.5 mL solution of freshly prepared of peptides in PBS. The doses of peptide administered per mouse were 0, 10, 30, 50, 70 and 90 mg Kg^−1 of body weight. Animals were directly inspected for adverse effects for 6 h, and mortality was monitored for 7 days thereafter. Differences between groups were analysed using the Fisher exact test (differences were considered to be statistically significant when the P value was <0.05). Briefly, E. coli ATCC8739 and E. coli 1812446 or S. aureus ATCC 29213 and S. aureus (MRSA) ATCC33591 were plated on tryptic soy agar plus 5% sheep blood (blood agar, Himedia, India) from a frozen stock. Following 24 h of incubation of the agar plate, three isolated colonies were transferred to 1 mL of BHI. The broth culture was incubated overnight (12-16 h) at 37° C. with shaking. […] Mice were challenged with either strain of E. coli ATCC8739 and E. coli 1812446 or S. aureus ATC29213 and S. aureus (MRSA) ATCC33591 in a final volume of 200 μL of PBS by intraperitoneal injection (i.p.). The day of challenge was designated as day 1 of the experiment. Three hours after bacterial injection, mice (n=5) were treated, intraperitoneally, with different concentrations of peptides (1, 5 or 10 mg Kg^−1), LL-37, gentamicin and 10 mg Kg^−1 of imipenem or PBS for 8 days. For bacterial load evaluation, 5 mice per group were used. Animals were humanely killed 24 h after bacterial administration. To detect bacterial colonization, the peritoneal lavage samples were collected under sterile conditions. The peritoneal lavage was obtained by washing the cavity with 5 mL of sterile PBS. Samples were diluted serially, and 100 μL of each dilution was spread in duplicate on appropriate agar plates for the count of developed colonies. Cytokine levels (i.e., IFN-γ, IL-6, IL−10, IL−12p70 and TNF-α) in the peritoneal lavage of the mice both in the absence and presence of peptide treatment were quantified by ELISA (Peprotech, USA) according to the manufacturer's instructions.

[7] = tested on: human embryonic kidney (HEK293) cells; assay: Cytotoxicity against HEK293 cells; type: cell-based
Text: The FLPII motif was chosen for the permutations to preserve the natural antimicrobial activity of mast-L and also conserve the hydrophobic content inserted in the N-terminal extremity for the initial design of mast-MO. Next, we assessed the antimicrobial (FIG. 10) and cytotoxic activities of the mast-MO analog library against HEK293 cells (FIG. 6C). These specific cell line was chosen as it derives from human embryonic kidney cells and potential antimicrobial (i.e., AMPs, antibiotics) toxicity affects the kidneys, which are responsible for clearing such molecules (34). Also measured was whether the peptides aggregated at the highest concentration tested (128 μmoL^−1) (Table 7) since the motif inserted is composed of residues with aliphatic or aromatic side chain groups that may be prone to aggregation when in proximity within the primary peptide sequence, thus altering biological activity. Minor changes to the first five residues inserted in the mast-MO primary sequence led to a pronounced decrease in cytotoxic activity (2.5 to 5-fold) compared to mast-MO (FIG. 6C).

[8] = tested on: E. coli and S. aureus strains; assay: Systemic infection experiments, summary over all strains; settings: 10 mg Kg^−1
[9] = RAW 264.7, 24 h, 0.5 to 200 μmol L^−1, MTT (Table 6)
[10] = Dose 90 mg Kg^−1, five mice per group

For FLPII [FLPII motif, FLPII], the “Cytotoxic activity, Peptide Concentration” value (“Cytotoxic activity” below) [1, 9] was over 200 µmol/L and the “Hemolytic activity, Peptide Concentration” value [2] was over 200 µmol/L.
In the case of gentamicin, the “Cytotoxic activity” value ([1]; RAW 264.7 (Table 2)) is reported as over 400 µmol/L, the “Cytotoxic activity” value ([3]; hRBCs) is reported as over 400 µmol/L and the “Cytotoxic activity” value ([4]; L929) is reported as over 400 µmol/L.
With `CC[C@H](C)[C@H](NC(=O)[C@H](CCCCN)NC(=O)[C@H](CCCCN)NC(=O)[C@H](C)NC(=O)[C@H](CC(C)C)NC(=O)[C@H](C)NC(=O)[C@H](C)NC(=O)[C@H](CC(C)C)NC(=O)[C@H](C)NC(=O)[C@H](CCCCN)NC(=O)[C@H](CC(C)C)NC(=O)[C@H](CC(N)=O)NC(=O)[C@@H](NC(=O)[C@H](CC(C)C)NC(=O)[C@@H](NC(=O)[C@@H](NC(=O)[C@@H]1CCCN1C(=O)[C@@H](N)Cc1ccccc1)[C@@H](C)CC)[C@@H](C)CC)[C@@H](C)CC)C(=O)N[C@@H](CC(C)C)C(N)=O` [Analog 49, FPIILINLKALAALAKKIL] the “Side effects or adverse toxicity” value [5] was “did not cause any side effects or adverse toxicity”.
In the case of `C[C@@H](O)[C@H]1C(=O)N2C(C(=O)O)=C(SCCN=CN)C[C@H]12` [Imipenem, imipenem], the “Cytotoxic activity” value ([1]; mouse) is reported as over 400 µmol/L, the “Cytotoxic activity” value ([3]; human) is reported as over 400 µmol/L and the “Cytotoxic activity” value ([4]; mouse) is reported as over 400 µmol/L. For the same compound, the “Gross toxicity, number of mice (TL)” value ([6]; Dose 50 mg Kg^−1, five mice per group) was 2 (TL-1) and the “Gross toxicity, number of mice (TL)” value [6, 10] was 3 (TL-2).
`CC[C@H](C)[C@H](N)C(=O)N[C@@H](Cc1ccccc1)C(=O)N[C@@H](CC(C)C)C(=O)N1CCC[C@H]1C(=O)N[C@H](C(=O)N[C@H](C(=O)N[C@@H](CC(N)=O)C(=O)N[C@@H](CC(C)C)C(=O)N[C@@H](CCCCN)C(=O)N[C@@H](C)C(=O)N[C@@H](CC(C)C)C(=O)N[C@@H](C)C(=O)N[C@@H](C)C(=O)N[C@@H](CC(C)C)C(=O)N[C@@H](C)C(=O)N[C@@H](CCCCN)C(=O)N[C@@H](CCCCN)C(=O)N[C@H](C(=O)N[C@@H](CC(C)C)C(N)=O)[C@@H](C)CC)[C@@H](C)CC)[C@@H](C)CC` [Analog 15, IFLPIINLKALAALAKKIL] was tested, and the “Side effects or adverse toxicity” value [5] was “did not cause any side effects or adverse toxicity”.
With “LL-37: human cathelicidin LL-37, used for comparison” the “Cytotoxic activity” value ([1]; RAW 264.7 (Table 2)) was 100 µmol/L, the “Cytotoxic activity” value [1, 9] was 100 µmol/L and the “Cytotoxic activity” value ([3]; hRBCs) was 87 µmol/L. The “Cytotoxic activity” value ([4]; L929) was 95 µmol/L and the “Hemolytic activity, Peptide Concentration” value [2] was 100 µmol/L.
With `CC[C@H](C)[C@H](NC(=O)[C@H](CCCCN)NC(=O)[C@H](CCCCN)NC(=O)[C@H](C)NC(=O)[C@H](CC(C)C)NC(=O)[C@H](C)NC(=O)[C@H](C)NC(=O)[C@H](CC(C)C)NC(=O)[C@H](C)NC(=O)[C@H](CCCCN)NC(=O)[C@H](CC(C)C)NC(=O)[C@H](CC(N)=O)NC(=O)[C@@H](NC(=O)[C@@H](NC(=O)[C@@H](NC(=O)[C@@H]1CCCN1C(=O)[C@H](CC(C)C)NC(=O)[C@@H](N)Cc1ccccc1)[C@@H](C)CC)[C@@H](C)CC)[C@@H](C)CC)C(=O)N[C@@H](CC(C)C)C(N)=O` [Mast-MO, FLPIIINLKALAALAKKIL] the “Concentration toxic against HEK293” value [7] was 25 µmol⁻¹, the “Cytotoxic activity” value ([7]; HEK293) was 25 µmol/L and the “Toxicity when injected systemically in the infection model” value [8] was “did not present toxicity”. The “Cytotoxicity towards murine macrophages (RAW 264.7 cells), in words” value [1] was “not cytotoxic”, the “Cytotoxic activity” value ([1]; RAW 264.7 (Table 2)) was over 400 µmol/L and the “Hemolytic activity in human red blood cell assays” value ([3]; concentration range tested 1-400 μmoL^−1) was “did not present hemolytic activity”. The “Cytotoxic activity” value ([3]; hRBCs) was over 400 µmol/L, the “Cytotoxicity towards murine fibroblasts (L929 cells), in words” value [4] was “not cytotoxic” and the “Cytotoxic activity” value ([4]; L929) was over 400 µmol/L. For the same compound, the “Gross toxicity, number of mice (TL)” value [6, 10] was 2 (TL-1) and the “Toxicity in preliminary mouse experiments, in words” value ([6]; single dose, peritoneally) was “lacked toxicity”.
